How the values were obtained:
Format in all cases: in vivo, mouse
[1] = test system: pancreas-infiltrating cells; test: Cytofluorimetric analysis of pancreas-infiltrating cells; conditions: among 8 week-old, vehicle-treated and treated mice at 30 weeks
Protocol: After removal of all visible pancreatic lymph nodes, pancreata were individually digested in 3 ml HBSS containing 1 mg/ml collagenase IV (Sigma), by shaking (200 rpm) at 37° C. for 15 min. Single cell suspensions were collected after diluting the enzyme with ice-cold HBSS containing 5% FCS (FETAL CALF SERUM) and removal of the aggregates by settling for 2 min on ice. Aggregates were further digested with collagenase IV at 0.5 mg/ml for 10 min, and at 0.25 mg/ml for 6 min. Single cell suspensions were washed three times, and passed over a MASC Pre-separation filter (Miltenyi Biotec) to remove cell aggragetes and clumps. […]
Single-cell suspensions of pancreas-infiltrating, spleen or lymph node cells were incubated with anti-CD4 mAb-coated Microbeads (Miltenyi Biotec) and applied onto Mini-MACS columns (Miltenyi Biotec). […] Cells were analyzed with a FACScan flow cytometer equipped with CellQuest software (Becton Dickinson, Mountain View, Calif.).
B. Consecutive sections of the same islets were stained with anti-CD4, anti-CD8, anti-B220, anti-CD11b (Mac-1), and anti-CD11c (N418) mAbs. […] Pancreas-infiltrating cells isolated from untreated 8 week-old NOD mice, vehicle-treated and Compound A treated NOD mice at 30 weeks of age were stained with mAbs specific for the indicated surface molecules and analyzed by flow cytometry. […]

[2] = test system: CD4+ T cells; test: Intracellular cytokine production by CD4+ cells from treated NOD mice (PMA and ionomycin, flow cytometry)
Protocol: After removal of all visible pancreatic lymph nodes, pancreata were individually digested in 3 ml HBSS containing 1 mg/ml collagenase IV (Sigma), by shaking (200 rpm) at 37° C. for 15 min. Single cell suspensions were collected after diluting the enzyme with ice-cold HBSS containing 5% FCS (FETAL CALF SERUM) and removal of the aggregates by settling for 2 min on ice. Aggregates were further digested with collagenase IV at 0.5 mg/ml for 10 min, and at 0.25 mg/ml for 6 min. Single cell suspensions were washed three times, and passed over a MASC Pre-separation filter (Miltenyi Biotec) to remove cell aggragetes and clumps. Single cell suspensions were incubated with anti-CD4 mAb-coated Microbeads (Miltenyi Biotec) and applied onto Mini-MACS columns (Miltenyi Biotec). This procedure yielded a positive fraction containing CD4^+ cells. Immediately after purification cells were stimulated with PMA (PHORBOL MYRISTIC ACETATE) and ionomycin in complete medium, fixed, and stained the next day for intracellular production of cytokines.
Cells were stained for IFN-γ, IL-4, IL-10 and IL-2 as previously described (Trembleau, S., et al. Eur J Immunol. 1997,27:2330-2339). Reagents for intracytoplasmic staining contained 1% FCS, 0.5% saponin (Sigma), and 0.1% sodium azide. All incubations were performed at room temperature. Cells were washed, pre-incubated for 10 min with PBS(phosphate buffered saline)/FCS/saponin, and then incubated with FITC(fluorescein isothiocyanate)-labeled rat anti-mouse IFN-γ (XMG1.2) and PE (phycoerythrin)-labeled rat anti-IL-2 (JE56-5H4), rat anti-mouse IL-4 (11B11), or PE-labeled rat anti-mouse IL-10 (JES5-16E3). Isotype controls were FITC- and PE-labeled rat IgG1 (R3-34). After 30 min, cells were washed twice with PBS/FCS/saponin and then with PBS containing 5% of FCS without saponin to allow membrane closure. The cell surface was then stained with CyChrome-labeled anti-CD4 (L3T4) for 15 min at room temperature. Analysis was performed with a FACScan flow cytometer (Becton Dickinson, Mountain View, Calif.) equipped with CellQuest software, and 10,000 events were acquired.
To identify mechanisms accounting for the reduced type 1 DM development in 1,25-dihydroxy-16,23Z-diene-26,27-hexafluoro-19-nor vitamin D3-treated NOD mice, the cytokines produced by CD4^+ T cells in the spleen, pancreatic lymph node and pancreas-infiltrating cells of […] NOD mice, treated from 8 to 16 weeks of age with Compound A or vehicle were analyzed.
FIG. 4. (page 4/9) Cytokine production by CD4^+ cells from spleen, pancreatic lymph node and pancreas-infiltrating cells. Spleen (A), pancreatic lymph node (B) and pancreas-infiltrating (C) CD4^+ cells were obtained from untreated 8 week-old or 20 week-old NOD mice treated 5×/week p.o. from 8 to 16 weeks of age with vehicle or with 0.03 μg/Kg Compound A. Positively selected CD4^+ cells (2×10^5 cells/well) were stimulated with PMA and ionomycin and analyzed by flow cytometry for IFN-γ (abscissa) and IL-2, IL-4 or IL-10 (ordinate) production. Acquisition was performed on CD4^+ cells. Percentage of positive cells, set according to the isotype-matched controls (not shown), are shown in the top corner of each quadrant. Dot plots are from a representative experiment out of four performed. Bar graphs represent the mean ±SE of four independent experiments using pooled cells from 3 to 4 mice. The P values were calculated by Mann-Whitney U test (* indicates P<0.05 vs. 8 week-old NOD mice).

[3] = test system: vascularized heart allograft; test: Vascularized heart allograft survival, C57BL/6 into BALB/c recipients
Description: Fully vascularized hearts were grafted into the abdomen of recipient mice as described (Corry, R. J., H. J. Winn, and P. S. Russell. Primarily vascularized allografts of hearts in mice. The role of H-2D, H-2K, and non-H-2 antigens in rejection. Transplantation. 1973, 16:343). Graft survival was monitored by palpation and rejection was confirmed by direct graft inspection.

[4] = CD4+ T cells from pancreatic lymph nodes, vs 30 week-old vehicle-treated or 8 week-old NOD mice

## C[C@H](C/C=C\C(O)(C(F)(F)F)C(F)(F)F)C1=CC[C@H]2/C(=C/C=C3C[C@@H](O)C[C@H](O)C3)CCC[C@]12C [Compound A, 1,25-dihydroxy-16,23Z-diene-26,27-hexafluoro-19-nor vitamin D3]
[1]
  percentage of CD4+, CD8+, B220+, CD11b+ and CD11c+ pancreas-infiltrating cells: no difference
[2]; [4]
  reduction of IFN-γ-producing cells: 3 fold
  reduction of IL-2 producing cells: 10 fold
[2]; CD4+ cells, means of three experiments, 0.7±0.2% in 8 weeks old, 0.9±0.2% vehicle
  IL-4-producing cells: 2.5±0.3%
[2]; CD4+ pancreas-infiltrating cells, compared with vehicle-treated mice
  IFN-γ-producing cells: similarly lower
[2]; mouse, in vivo
  IL-10-producing CD4+ cells: No increase
[3]; 0.01 μg/kg po (d-1, 0, +1) then 0.003 μg/kg po (d+2 until d+30)
  Graft survival (days) Mean: 12.00 days
[3]; 0.1 μg/kg po (d-1, 0, +1) then 0.03 μg/kg (d+2 until d 15)
  Graft survival (days) Mean: 38.20 days

Source: US20040214803A1, “Use of vitamin d3 analogue for the treatment of autoimmune diabetes” (priority 2001, published 2004)
